Measured values as given in paper PMC4302056 (Bioorganic & medicinal chemistry, 2014).
In brackets after ≈: the same amount, converted by molar mass. Entries after “also recorded” stand apart in the source; their conditions may differ.

Experiments:
Histoplasma capsulatum = assay: microbe, parasite or virus in culture; type: cell-based; conditions: for anti-Histoplasma activity (in words): qualitative statement; for MIC50: Histoplasma capsulatum, 96 h, read-out: Histoplasma capsulatum MIC50
Cryptococcus neoformans = type: cell-based
[1] = system: DU-145 human prostate cancer cells; conditions: read-out: IC50 of in vitro proliferation inhibition; cited from earlier work
Candida albicans = conditions: cited from earlier work
Blastomyces dermatitidis = conditions: cited from earlier work
Histoplasma yeast = conditions: inhibitory vs microbicidal; cited from earlier work
Aspergillus fumigatus = conditions: cited from earlier work

O=C(Nc1nc(-c2ccccc2)cs1)C1CCCC1 [Compound 15a, N-(4-Phenylthiazol-2-yl)cyclopentanecarboxamide]
anti-Histoplasma activity (in words) (Histoplasma capsulatum): no activity

O=C(Nc1ncc(Cc2ccccc2)s1)C1CCCCC1 [Compound 4d, N-(5-Benzylthiazol-2-yl)cyclohexanecarboxamide]
MIC50 (Histoplasma capsulatum): 1.6 ± 0.1 µM (≈ 0.481 µg/mL) | anti-Cryptococcus activity (in words) (Cryptococcus neoformans): anti-Cryptococcus activity

O=C(CCC1CCCCC1)Nc1nc(-c2ccccc2)cs1 [Compound 15b, N-(4-Phenylthiazol-2-yl)-3-cyclohexanepropanamide]
anti-Histoplasma activity (in words) (Histoplasma capsulatum): no activity

O=C(Nc1nc(C23CC4CC(CC(C4)C2)C3)cs1)C1CCCC1 [Compound 15d, N-[4-(Adamantan-1-yl)thiazol-2-yl]cyclopentanecarboxamide]
MIC50 (Histoplasma capsulatum): 7.4 µM (≈ 2.45 µg/mL)

O=C(CC1CCCCC1)Nc1ncc(Cc2ccccc2)s1 [Compound 4e, N-(5-Benzylthiazol-2-yl)-2-cyclohexylacetamide]
anti-Cryptococcus activity (in words) (Cryptococcus neoformans): lost activity

CC(C)C(=O)Nc1ncc(Cc2ccccc2)s1 [Compound 4b, N-(5-Benzylthiazol-2-yl)isobutyramide]
MIC50 (Histoplasma capsulatum): 6.7 µM (≈ 1.74 µg/mL)

Nc1ncc(Cc2ccccc2)s1 [Compound 3a, 5-Benzyl-2-thiazolamine]
MIC50 (Histoplasma capsulatum): > 10 µM

O=C(CC1CCCCC1)Nc1nc(C23CC4CC(CC(C4)C2)C3)cs1 [Compound 15f, N-[4-(Adamantan-1-yl)thiazol-2-yl]-2-cyclohexylacetamide]
anti-Histoplasma activity (in words) (Histoplasma capsulatum): abolished activity

O=C(Nc1ncc(Cc2ccccc2)s1)C1CCSCC1 [Compound 5a, N-(5-Benzylthiazol-2-yl)tetrahydro-2H-thiopyran-4-carboxamide]
MIC50 (Histoplasma capsulatum): 4.8 µM (≈ 1.53 µg/mL)

O=C(Nc1ncc(Cc2ccccc2)s1)C1CCCC1 [Compound 4c, N-(5-Benzylthiazol-2-yl)cyclopentanecarboxamide]
MIC50 (Histoplasma capsulatum): 1.6 ± 0.1 µM (≈ 0.458 µg/mL) | anti-Cryptococcus activity (in words) (Cryptococcus neoformans): anti-Cryptococcus activity

O=C(Nc1ncc(Cc2cccc3ccccc23)s1)C1CCCC1 [Compound 9c, N-[5-(1-Naphthalenylmethyl)thiazol-2-yl]cyclopentanecarboxamide]
anti-Cryptococcus activity (in words) (Cryptococcus neoformans): anti-Cryptococcus activity

O=C(Nc1ncc(Cc2ccccc2)s1)N1CCOCC1 [Compound 5f, N-(5-Benzylthiazol-2-yl)morpholine-4-carboxamide]
MIC50 (Histoplasma capsulatum): > 10 µM

O=C(Nc1ncc(Cc2ccccc2)s1)C(F)(F)F [Compound 4a, N-(5-Benzylthiazol-2-yl)trifluoroacetamide]
MIC50 (Histoplasma capsulatum): > 10 µM

O=C(CCC1CCCCC1)Nc1ncc(Cc2ccccc2)s1 [Compound 4f, N-(5-Benzylthiazol-2-yl)-3-cyclohexylpropanamide]
anti-Cryptococcus activity (in words) (Cryptococcus neoformans): lost activity

O=C(CCC1CCCCC1)Nc1ncc(Cc2cccc3ccccc23)s1 [Compound 9f, N-[5-(1-Naphthalenylmethyl)thiazol-2-yl]-3-cyclohexanepropanamide]
anti-Cryptococcus activity (in words) (Cryptococcus neoformans): lost activity

CC(C)C(=O)Nc1ncc(Cc2cccc3ccccc23)s1 [Compound 9b, N-[5-(1-Naphthalenylmethyl)thiazol-2-yl]isobutyramide]
anti-Cryptococcus activity (in words) (Cryptococcus neoformans): lost activity

O=C(Nc1nc(C23CC4CC(CC(C4)C2)C3)cs1)C1CCCCC1 [Compound 15e, N-[4-(Adamantan-1-yl)thiazol-2-yl]cyclohexanecarboxamide]
MIC50 (Histoplasma capsulatum): 2.5 ± 0.1 µM (≈ 0.861 µg/mL)

O=C(CCC1CCCCC1)Nc1ncc(CCc2ccccc2)s1 [Compound 11b, N-(5-Phenethylthiazol-2-yl)-3-cyclohexanepropanamide]
MIC50 (Histoplasma capsulatum): 0.7 ± 0.1 µM (≈ 0.24 µg/mL)

COc1ccc(Cc2cnc(NC(=O)/C=C/c3ccco3)s2)cc1 [Compound 6d, 3-(2-Furyl)-N-[5-(4-methoxybenzyl)-1,3-thiazol-2-yl]acrylamide]
anti-Histoplasma activity (in words) (Histoplasma capsulatum): did not have any antifungal activity | IC50 [1]: 15 nM

Cc1nc(NC(=O)CCC2CCCCC2)sc1Cc1ccccc1 [Compound 14c, N-(5-Benzyl-4-methylthiazol-2-yl)-3-cyclohexylpropanamide]
MIC50 (Histoplasma capsulatum): > 10 µM | anti-Histoplasma activity (in words) (Histoplasma capsulatum): reduced anti-Histoplasma activity or were inactive

CC(C)(C)OC(=O)Nc1ncc(C(O)c2ccccc2)s1 (stereo not shown) [Compound 2a, tert-Butyl{5-[hydroxy(phenyl)methyl]thiazol-2-yl}carbamate]
MIC50 (Histoplasma capsulatum): > 10 µM | anti-Histoplasma activity (in words) (Histoplasma capsulatum): lack of activity

NC(=O)c1cc(-c2ccccc2)sc1NC(=O)c1ccc2c(c1)OCCO2 [4H2, reference compound]
anti-Histoplasma activity (in words) (Histoplasma capsulatum): abolished or reduced activity

O=C(Nc1ncc(CCc2ccccc2)s1)C1CCCC1 [Compound 11a, N-(5-Phenethylthiazol-2-yl)cyclopentanecarboxamide]
MIC50 (Histoplasma capsulatum): 0.9 ± 0.1 µM (≈ 0.27 µg/mL)

O=C(Nc1ncc(Cc2ccccc2)s1)c1ccccc1 [Compound 4h, N-(5-Benzylthiazol-2-yl)benzamide]
MIC50 (Histoplasma capsulatum): > 10 µM

O=C(CCC1CCCCC1)Nc1ncc(Cc2cccc(C(F)(F)F)c2)s1 [Compound 7a, N-{5-[3-(Trifluoromethyl)benzyl]thiazol-2-yl}-3-cyclohexanepropanamide]
anti-Histoplasma activity (in words) (Histoplasma capsulatum): lack of activity

O=C(CC1CCCCC1)Nc1ncc(Cc2cccc3ccccc23)s1 [Compound 9e, N-[5-(1-Naphthalenylmethyl)thiazol-2-yl]-2-cyclohexaneacetamide]
anti-Cryptococcus activity (in words) (Cryptococcus neoformans): lost activity

O=C(Nc1ncc(CC2CCCCC2)s1)c1ccccc1 [Compound 13e, N-[5-(Cyclohexylmethyl)thiazol-2-yl]benzamide]
MIC50 (Histoplasma capsulatum): 4.6 µM (≈ 1.38 µg/mL)

O=C(CCC1CCCCC1)Nc1nnc(Cc2ccccc2)s1 [Compound 14a, N-(5-Benzyl-1,3,4-thiadiazol-2-yl)-3-cyclohexylpropanamide]
MIC50 (Histoplasma capsulatum): > 10 µM | anti-Histoplasma activity (in words) (Histoplasma capsulatum): abolished or reduced activity

CN(C(=O)CCC1CCCCC1)c1ncc(Cc2ccccc2)s1 [Compound 14b, N-(5-Benzylthiazol-2-yl)-3-cyclohexyl-N-methylpropanamide]
MIC50 (Histoplasma capsulatum): > 10 µM | anti-Histoplasma activity (in words) (Histoplasma capsulatum): abolished or reduced activity

O=C(Nc1ncc(Cc2ccccc2)s1)c1cnc(-c2cccs2)s1 [Compound 5h, N-(5-Benzylthiazol-2-yl)-2-(thiophen-2-yl)thiazole-5-carboxamide]
MIC50 (Histoplasma capsulatum): > 10 µM

O=C(Nc1ncc(CC2CCCCC2)s1)C12CC3CC(CC(C3)C1)C2 [Compound 13f, N-[5-(Cyclohexylmethyl)thiazol-2-yl]adamantane-1-carboxamide]
MIC50 (Histoplasma capsulatum): > 10 µM | anti-Histoplasma activity (in words) (Histoplasma capsulatum): no activity

O=C(Nc1ncc(Cc2ccccc2)s1)C1CCOCC1 [Compound 5b, N-(5-Benzylthiazol-2-yl)tetrahydro-2H-pyran-4-carboxamide]
MIC50 (Histoplasma capsulatum): > 10 µM

O=C(Nc1ncc(-c2ccccc2)s1)C1CCCC1 [Compound 12a, N-(5-Phenylthiazol-2-yl)cyclopentanecarboxamide]
MIC50 (Histoplasma capsulatum): > 10 µM

O=C(Nc1ncc(Cc2cccc3ccccc23)s1)C1CCCCC1 [Compound 9d, N-[5-(1-Naphthalenylmethyl)thiazol-2-yl]cyclohexanecarboxamide]
inhibition of in vitro growth (Candida albicans): does not inhibit | inhibition of in vitro growth (Blastomyces dermatitidis): does not inhibit | anti-Cryptococcus activity (in words) (Cryptococcus neoformans): anti-Cryptococcus activity | type of antifungal action (Histoplasma yeast): inhibitory rather than microbicidal action | inhibition of in vitro growth (Aspergillus fumigatus): does not inhibit

CC(C)C(=O)Nc1ncc(CC2CCCCC2)s1 [Compound 13a, N-[5-(Cyclohexylmethyl)thiazol-2-yl]isobutyramide]
MIC50 (Histoplasma capsulatum): > 10 µM | anti-Histoplasma activity (in words) (Histoplasma capsulatum): no activity

O=C(CC1CCCCC1)Nc1ncc(CC2CCCCC2)s1 [Compound 13c, N-[5-(Cyclohexylmethyl)thiazol-2-yl]-2-cyclohexaneacetamide]
MIC50 (Histoplasma capsulatum): > 10 µM | anti-Histoplasma activity (in words) (Histoplasma capsulatum): no activity; also recorded: abolished activity

O=C(/C=C/C1CCCCC1)Nc1ncc(Cc2ccccc2)s1 [Compound 4g, (E)-N-(5-Benzylthiazol-2-yl)-3-cyclohexylacrylamide]
MIC50 (Histoplasma capsulatum): > 10 µM

O=C(Nc1ncc(-c2ccccc2)s1)C1CCCCC1 [Compound 12b, N-(5-Phenylthiazol-2-yl)cyclohexanecarboxamide]
MIC50 (Histoplasma capsulatum): > 10 µM
